Assay results as given in patent US10689365B2, “Substituted 2-alkylimidazolylcarboxamides as pesticides” (Bayer CropScience Aktiengesellschaft, priority 2016, dated 2020).
Where two headings read alike, the source gives them in different places.

How the values were obtained:
[1] = log P by HPLC on reversed-phase (C18) columns, OECD Guideline 117; type: physicochemical; conditions: for chromatographic logP: reversed-phase (C18) HPLC column
Method: The log P values were determined in accordance with OECD Guideline 117 (EC Directive 92/69/EEC) by HPLC (high-performance liquid chromatography) using reversed-phase (RP) columns (C18), by the following methods:
[a] The LC-MS determination in the acidic range was carried out at pH 2.7 with 0.1% aqueous formic acid and acetonitrile (contains 0.1% formic acid) as mobile phases; linear gradient from 10% acetonitrile to 95% acetonitrile.
[b] LC-MS determination in the neutral range was carried out at pH 7.8 with 0.001 molar aqueous ammonium hydrogencarbonate solution and acetonitrile as mobile phases; linear gradient from 10% acetonitrile to 95% acetonitrile.

Myzus persicae [2] = assay: Myzus persicae - spray test (Chinese cabbage leaf discs); type: in vivo; conditions: for pest or weed control at 500 g/ha: Myzus persicae, foliar, read-out: efficacy
Method: Myzus persicae—Spray Test
Solvent: 78 parts by weight of acetone • • 1.5 parts by weight of dimethylformamide
Emulsifier: alkylaryl polyglycol ether
To produce a suitable active compound preparation, 1 part by weight of active compound is dissolved using the stated parts by weight of solvent and made up with water containing an emulsifier concentration of 1000 ppm until the desired concentration is attained. To produce further test concentrations, the formulation is diluted with emulsifier-containing water.
Discs of Chinese cabbage leaves (Brassica pekinensis) infested by all stages of the green peach aphid (Myzus persicae) are sprayed with an active ingredient formulation of the desired concentration.
After 5-6 days, the efficacy in % is determined. 100% means that all the aphids have been killed; 0% means that no aphids have been killed.

Myzus persicae [3] = assay: Myzus persicae - oral test; type: in vivo; conditions: for pest or weed control at 20 ppm: Myzus persicae, po, 120 h, read-out: efficacy
Method: Solvent: 100 parts by weight of acetone
To produce a suitable preparation of active compound, 1 part by weight of active compound is dissolved using the specified parts by weight of solvent and made up with water until the desired concentration is attained.
50 μl of the active compound preparation are transferred into microtitre plates and made up to a final volume of 200 μl with 150 μl of IPL41 insect medium (33%+15% sugar). Subsequently, the plates are sealed with parafilm, which a mixed population of green peach aphids (Myzus persicae) within a second microtitre plate is able to puncture and imbibe the solution through it.
After 5 days, the efficacy in % is determined. 100% means that all the aphids have been killed; 0% means that no aphids have been killed.

[4] = acidic range, pH 2.7, 0.1% aqueous formic acid/acetonitrile
[5] = neutral range, pH 7.8, aqueous ammonium hydrogencarbonate/acetonitrile
[6] = application rate 500 g/ha, after 5-6 days
[7] = application rate 20 ppm, after 5 days
[8] = neutral range, pH 7.8, aqueous ammonium hydrogencarbonate/acetonitrile, read-out: logP[n]
[9] = acidic range, pH 2.7, 0.1% aqueous formic acid/acetonitrile, read-out: logP[a]

Structure (SMILES) | logP[a] [1, 4] | logP[n] [1, 5] | efficacy (Myzus persicae [2]; [6]) [%] | efficacy (Myzus persicae [3]; [7]) [%] | also measured
CN(C(=O)c1cnc(COCc2ccccc2)n1C)c1cccnc1 [Example I-1-25] | 1.10 | 1.63 | 90 | 100 | 
C=C(C)c1ncc(C(=O)N(C)c2cccnc2)n1C [Example I-1-57] | 0.10 | 1.05 | 90 |  | 
COCc1ncc(C(=O)N(C)c2cccnc2)n1C [Example I-1-22, 2-(Methoxymethyl)-N,1-dimethyl-N-(pyridin-3-yl)-1H-imidazole-5-carboxamide] |  |  |  |  | chromatographic logP [1, 8]: 0.63; pest or weed control at 500 g/ha (Myzus persicae [2]; [6]): 100%; pest or weed control at 20 ppm (Myzus persicae [3]; [7]): 100%
C=Cc1ncc(C(=O)N(C)c2cccnc2)n1C [Example I-1-6, N,1-Dimethyl-N-(pyridin-3-yl)-2-vinyl-1H-imidazole-5-carboxamide] |  |  |  |  | pest or weed control at 500 g/ha (Myzus persicae [2]; [6]): 100%; pest or weed control at 20 ppm (Myzus persicae [3]; [7]): 100%
CN(C(=O)c1cnc(C(O)c2ccccn2)n1C)c1cccnc1 (racemic) [Example I-1-17] | 0.02 | 0.71 | 100 | 100 | 
CN(C(=O)c1cnc(C(O)c2ncccn2)n1C)c1cccnc1 (racemic) [Example I-1-21] |  | 0.40 | 100 | 100 | 
CN(C(=O)c1cnc(C(O)c2cccnc2)n1C)c1cccnc1 (racemic) [Example I-1-18] |  | 0.60 | 90 | 100 | 
Cn1c(C(=O)N(c2cccnc2)C2CC2)cnc1CO [Example I-1-66] |  | 0.61 |  | 70 | 
CN(C(=O)c1cnc(Cn2ncn(C3CC3)c2=O)n1C)c1cccnc1 [Example I-1-69] | 0.22 | 0.59 | 70 |  | 
CN(C(=O)c1cnc(C(O)c2cnccc2Cl)n1C)c1cccnc1 (racemic) [Example I-1-20] | 0.59 | 1.07 | 90 | 100 | 
CN(C(=O)c1cnc(C(O)c2ccc(Cl)cc2)n1C)c1cccnc1 (racemic) [Example I-1-15] | 1.11 | 1.56 | 100 | 100 | 
CN(C(=O)c1cnc(C(C)(C)O)n1C)c1cccnc1 [Example I-1-10, 2-(2-Hydroxypropan-2-yl)-N,1-dimethyl-N-(pyridin-3-yl)-1H-imidazole-5-carboxamide] |  |  |  |  | chromatographic logP [1, 8]: 0.57; pest or weed control at 500 g/ha (Myzus persicae [2]): 90%; pest or weed control at 20 ppm (Myzus persicae [3]): 70%
CC(C)CC(O)c1ncc(C(=O)N(C)c2cccnc2)n1C (racemic) [Example I-1-60] | 0.60 | 1.26 | 90 | 100 | 
CCN(C(=O)c1cnc(CO)n1C)c1cccnc1 [Example I-1-8] | −0.16 | 0.63 |  | 90 | 
CN(C(=O)c1cnc(C(O)C(Cl)(Cl)Cl)n1C)c1cccnc1 (centres unmarked) [Example I-1-68] | 1.02 | 1.21 |  |  | 
CN(C(=O)c1cnc(Cn2ncn(C)c2=O)n1C)c1cccnc1 [Example I-1-70] |  | 0.37 |  |  | 
CN(C(=O)c1cnc(C(O)c2cccc(Cl)c2)n1C)c1cccnc1 (racemic) [Example I-1-14] | 1.01 | 1.56 | 90 | 100 | 
CC(C)CS(=O)(=O)Cc1ncc(C(=O)N(C)c2ccc[n+]([O-])c2)n1C [Example I-1-55, 2-[(Isobutylsulphonyl)methyl]-N,1-dimethyl-N-(1-oxidopyridin-3-yl)-1H-imidazole-5-carboxamide] |  |  |  |  | chromatographic logP [1, 9]: 0.68; chromatographic logP [1, 8]: 0.77
CN(C(=O)c1cnc(C#Cc2ccccc2)n1C)c1cccnc1 [IV-1-1, N,1-Dimethyl-2-(phenylethinyl)-N-(pyridin-3-yl)-1H-imidazole-5-carboxamide] |  |  |  |  | chromatographic logP [1, 9]: 1.86; chromatographic logP [1, 8]: 1.98
CC(C)OCc1ncc(C(=O)N(C)c2cccnc2)n1C [Example I-1-65] | 0.42 | 1.20 | 90 | 100 | 

Structure (SMILES) | logP[a] [1, 4] | logP[n] [1, 5] | efficacy (Myzus persicae [2]; [6]) [%] | efficacy (Myzus persicae [3]; [7]) [%] | also measured
CN(C(=O)c1cnc(Cc2ncccn2)n1C)c1cccnc1 [Example I-1-4] |  | 0.68 | 100 | 100 | 
CN(C(=O)c1cnc(C(O)c2ccncc2)n1C)c1cccnc1 (racemic) [Example I-1-19] |  | 0.54 | 90 | 100 | 
C/C=C\c1ncc(C(=O)N(C)c2cccnc2)n1C [Example I-1-59] |  | 1.11 | 90 |  | 
CN(C(=O)c1cnc(C(O)c2ccccc2)n1C)c1cccnc1 (centres unmarked) [Example I-1-12, 2-[Hydroxy(phenyl)methyl]-N,1-dimethyl-N-(pyridin-3-yl)-1H-imidazole-5-carboxamide] |  |  |  |  | chromatographic logP [1, 9]: 0.52; chromatographic logP [1, 8]: 1.23; pest or weed control at 500 g/ha (Myzus persicae [2]): 90%; pest or weed control at 20 ppm (Myzus persicae [3]): 100%
C=Cc1ncc(C(=O)N(CC)c2cccnc2)n1C [Example I-1-56] | 0.18 | 1.10 | 90 | 90 | 
CN(C(=O)c1cnc(COc2ccc(Cl)cc2)n1C)c1cccnc1 [Example I-1-62] | 1.63 | 2.00 | 100 | 100 | 
CN(C(=O)c1cnc(C(O)c2ccccc2Cl)n1C)c1cccnc1 (racemic) [Example I-1-13] | 0.85 |  | 100 | 100 | 
CCOCc1ncc(C(=O)N(C)c2cccnc2)n1C [Example I-1-64] | 0.18 | 0.92 | 100 | 100 | 
CN(C(=O)c1cnc(CO)n1C)c1cccnc1 [Example I-1-7, 2-(Hydroxymethyl)-N,1-dimethyl-N-(pyridin-3-yl)-1H-imidazole-5-carboxamide] |  |  |  |  | chromatographic logP [1, 8]: 0.28; pest or weed control at 500 g/ha (Myzus persicae [2]; [6]): 100%; pest or weed control at 20 ppm (Myzus persicae [3]; [7]): 100%
CN(C(=O)c1cnc(CCl)n1C)c1cccnc1 [III-1-1, 2-(Chloromethyl)-N,1-dimethyl-N-(pyridin-3-yl)-1H-imidazole-5-carboxamide] |  |  |  |  | chromatographic logP [1, 8]: 0.89
CC(O)c1ncc(C(=O)N(C)c2cccnc2)n1C (racemic) [Example I-1-9] |  | 0.45 | 100 | 100 | 
CN(C(=O)c1cnc(C(OCC(F)(F)F)C(F)(F)F)n1C)c1cccnc1 (centres unmarked) [Example I-1-67, N,1-Dimethyl-N-(pyridin-3-yl)-2-[2,2,2-trifluoro-1-(2,2,2-trifluoroethoxy)ethyl]-1H-imidazole-5-carboxamide] |  |  |  |  | chromatographic logP [1, 9]: 1.72; chromatographic logP [1, 8]: 1.86; pest or weed control at 500 g/ha (Myzus persicae [2]; [6]): 70%
CN(C(=O)c1cnc(C(O)c2ccc(Cl)c(Cl)c2)n1C)c1cccnc1 (racemic) [Example I-1-16] | 1.42 | 1.87 | 100 | 100 | 
CN(C(=O)c1cnc(COCC(F)(F)F)n1C)c1cccnc1 [Example I-1-63] | 0.84 | 1.36 | 90 | 100 | 
CN(C(=O)c1cnc(COc2cccc(Cl)c2)n1C)c1cccnc1 [Example I-1-24] | 1.69 | 2.02 | 100 | 90 | 
C/C=C/c1ncc(C(=O)N(C)c2cccnc2)n1C [Example I-1-58] |  | 1.08 | 90 |  | 
CC(C)C(O)c1ncc(C(=O)N(C)c2cccnc2)n1C (racemic) [Example I-1-11] | 0.18 |  | 90 | 100 | 
CN(C(=O)c1cnc(Cc2ccccc2)n1C)c1cccnc1 [Example I-1-3, 2-Benzyl-N,1-dimethyl-N-(pyridin-3-yl)-1H-imidazole-5-carboxamide] |  |  |  |  | chromatographic logP [1, 9]: 0.64; chromatographic logP [1, 8]: 1.48; pest or weed control at 500 g/ha (Myzus persicae [2]; [6]): 100%; pest or weed control at 20 ppm (Myzus persicae [3]; [7]): 90%
CN(C(=O)c1cnc(CCc2ccccc2)n1C)c1cccnc1 [Example I-1-5, N,1-Dimethyl-2-(phenylethyl)-N-(pyridin-3-yl)-1H-imidazole-5-carboxamide] |  |  |  |  | chromatographic logP [1, 9]: 0.66; chromatographic logP [1, 8]: 1.58; pest or weed control at 500 g/ha (Myzus persicae [2]; [6]): 100%; pest or weed control at 20 ppm (Myzus persicae [3]; [7]): 100%
